Laboratory results from PubChem BioAssay (NCI).
Where “and” joins values, the source holds several entries; their conditions need not be identical. Equal values may be shown once.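 Test compounds were applied to cells in 96-well plates for 48 hours at 5 doses. TGI: concentration producing complete growth inhibition.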 *1 amine or outer side, *2 acyl side, *3 side chain or, on linkers, in order; H or OH if unused. Where a SMILES comes first, the peptide text is derived from it. Bridges are numbered along the chain shown (N, C = ends). Roman numbers before positions name the chains, in order. [ ]: non-standard residue; d: D form. Actinocin(1to9) = Cc1c2oc3c(C)ccc(C(=O)[*:2])c3nc-2c(C(=O)[*:1])c(N)c1=O; NMeV = CN[CH](C(=O)O)C(C)C; Sar = CNCC(=O)O

Experiments:
Assay in all cases: NCI-60 cell line screen, 48 h
CAKI-1 renal = test system: CAKI-1 renal
MALME-3M melanoma = test system: MALME-3M melanoma
MDA-N = test system: MDA-N
NCI-H522 lung = test system: NCI-H522 lung
RXF 393 renal = test system: RXF 393 renal
SR leukemia = test system: SR leukemia
A549 NSCLC = test system: A549 NSCLC
OVCAR-8 ovarian = test system: OVCAR-8 ovarian
DMS 114 small cell lung = test system: DMS 114 small cell lung
HOP-18 NSCLC = test system: HOP-18 NSCLC
KM20L2 colon = test system: KM20L2 colon
LXFL 529 NSCLC = test system: LXFL 529 NSCLC
M19-MEL melanoma = test system: M19-MEL melanoma
RXF-631 renal = test system: RXF-631 renal
SNB-78 CNS = test system: SNB-78 CNS
DLD-1 colon = test system: DLD-1 colon
DMS 273 small cell lung = test system: DMS 273 small cell lung
XF 498 CNS = test system: XF 498 CNS

COc1ccc(CC2NC(=O)C(NC(=O)c3c4nc5c(C(=O)NC6C(=O)NC(Cc7ccc(OC)cc7)C(=O)N7CCCC7C(=O)N(C)CC(=O)N(C)C(C(C)C)C(=O)OC6C)ccc(C)c5oc-4c(C)c(=O)c3N)C(C)OC(=O)C(C(C)C)N(C)C(=O)CN(C)C(=O)C3CCCN3C2=O)cc1 (stereo unspecified) (I: TY(Me)P[Sar][NMeV] / II: TY(Me)P[Sar][NMeV]; ester I:1-I:C, II:1-II:C; linker I:N-II:N via Actinocin(1to9); configuration not given here)
TGI (CAKI-1 renal): 0.306 µM
TGI (MALME-3M melanoma): 0.0374 µM
TGI (MDA-N): 0.0876 µM
TGI (NCI-H522 lung): 0.0234 µM and 0.0235 µM
TGI (RXF 393 renal): 0.0203 µM
TGI (SR leukemia): < 0.001 µM

C[n+]1c(-c2ccc(/C=N\Nc3ccnc(N/N=C/c4ccc(-c5cn6ccsc6[n+]5C)cc4)n3)cc2)cn2ccsc21
TGI (A549 NSCLC): > 100 µM
TGI (CAKI-1 renal): 80.8 µM
TGI (MALME-3M melanoma): 85.4 µM
TGI (MDA-N): 26.7 µM
TGI (NCI-H522 lung): > 100 µM
TGI (OVCAR-8 ovarian): > 100 µM
TGI (RXF 393 renal): 56.3 µM
TGI (SR leukemia): 64.8 µM

NC(=S)NN=Cc1ccccc1OCc1cccc(COc2ccccc2C=NNC(N)=S)n1
TGI (A549 NSCLC): > 100 µM
TGI (CAKI-1 renal): > 100 µM
TGI (MALME-3M melanoma): > 100 µM
TGI (MDA-N): > 100 µM
TGI (NCI-H522 lung): > 100 µM
TGI (OVCAR-8 ovarian): > 100 µM
TGI (RXF 393 renal): 10.9 µM
TGI (SR leukemia): > 100 µM

O=C(CNc1ccc([N+](=O)[O-])cc1)Nn1c(-c2ccccc2)nc2ccccc2c1=O
TGI (A549 NSCLC): 25.8 µM
TGI (CAKI-1 renal): 5.15 µM
TGI (MALME-3M melanoma): 4.82 µM
TGI (MDA-N): 13.8 µM
TGI (NCI-H522 lung): 4.79 µM
TGI (OVCAR-8 ovarian): 18 µM
TGI (RXF 393 renal): 8.84 µM
TGI (SR leukemia): > 37.4 µM

C[Si](C)(C)CCOCN(C(=O)C1=CCC2(CC1)OCCO2)c1ccccc1I
TGI (A549 NSCLC): 88.2 µM
TGI (CAKI-1 renal): 55.7 µM
TGI (MALME-3M melanoma): 52.9 µM
TGI (MDA-N): 59.1 µM
TGI (NCI-H522 lung): 38.7 µM
TGI (OVCAR-8 ovarian): > 100 µM
TGI (RXF 393 renal): 35.4 µM
TGI (SR leukemia): > 100 µM

CC1=C(C)C2(C#N)C(=O)N3C(=NC(c4ccco4)NC3c3ccco3)C2(C#N)C(c2ccco2)N1 (stereo unspecified)
TGI (A549 NSCLC): > 100 µM
TGI (CAKI-1 renal): > 100 µM
TGI (MALME-3M melanoma): > 100 µM
TGI (MDA-N): > 100 µM
TGI (NCI-H522 lung): > 100 µM
TGI (OVCAR-8 ovarian): > 100 µM
TGI (RXF 393 renal): > 100 µM
TGI (SR leukemia): > 100 µM

CC(C)=NC(C(=O)O)C(C)(C)S (stereo unspecified)
TGI (A549 NSCLC): > 100 µM
TGI (CAKI-1 renal): > 100 µM
TGI (MALME-3M melanoma): > 100 µM
TGI (MDA-N): > 100 µM
TGI (NCI-H522 lung): > 100 µM
TGI (OVCAR-8 ovarian): > 100 µM
TGI (RXF 393 renal): > 100 µM
TGI (SR leukemia): > 100 µM

Cc1cc(C(O)CCCc2ccccc2)cc(C)c1O (stereo unspecified)
TGI (A549 NSCLC): > 100 µM
TGI (DMS 114 small cell lung): > 100 µM
TGI (HOP-18 NSCLC): > 100 µM
TGI (KM20L2 colon): > 100 µM
TGI (LXFL 529 NSCLC): > 100 µM
TGI (M19-MEL melanoma): > 100 µM
TGI (MALME-3M melanoma): 64.3 µM
TGI (NCI-H522 lung): > 100 µM
TGI (OVCAR-8 ovarian): > 100 µM
TGI (RXF 393 renal): 60 µM
TGI (RXF-631 renal): > 100 µM
TGI (SNB-78 CNS): > 100 µM

O=C(Cc1csc2[n+]1C(=O)/C(=C/c1ccc(Cl)cc1)S2)Nc1ccccc1
TGI (A549 NSCLC): 84.6 µM
TGI (CAKI-1 renal): > 100 µM
TGI (MALME-3M melanoma): 90.6 µM
TGI (MDA-N): > 100 µM
TGI (NCI-H522 lung): 40.5 µM
TGI (OVCAR-8 ovarian): > 100 µM
TGI (RXF 393 renal): 42.6 µM
TGI (SR leukemia): > 100 µM

CC1=CP(=O)(OC(C)C)C=C(C)C1=C(Cl)Cl (stereo unspecified)
TGI (A549 NSCLC): 97.8 µM
TGI (DLD-1 colon): > 100 µM
TGI (DMS 114 small cell lung): > 100 µM
TGI (DMS 273 small cell lung): > 100 µM
TGI (HOP-18 NSCLC): > 100 µM
TGI (KM20L2 colon): > 100 µM
TGI (LXFL 529 NSCLC): > 100 µM
TGI (M19-MEL melanoma): > 100 µM
TGI (MALME-3M melanoma): > 100 µM
TGI (NCI-H522 lung): 9.03 µM
TGI (OVCAR-8 ovarian): > 100 µM
TGI (RXF 393 renal): > 100 µM
TGI (RXF-631 renal): > 100 µM
TGI (SR leukemia): > 100 µM
TGI (XF 498 CNS): > 100 µM

O=C(NCCc1ccccn1)c1ccc2cc(C(=O)N3CC(CCl)c4ccc([N+](=O)[O-])cc43)[nH]c2c1 (stereo unspecified)
TGI (A549 NSCLC): > 100 µM
TGI (CAKI-1 renal): > 52.7 µM
TGI (MALME-3M melanoma): > 100 µM
TGI (MDA-N): > 100 µM
TGI (NCI-H522 lung): > 86.7 µM
TGI (OVCAR-8 ovarian): > 86.9 µM
TGI (RXF 393 renal): 60.3 µM
TGI (SR leukemia): > 100 µM

CCc1cccc(C(C)C)c1NC(=O)C(=O)Nn1c(=S)[nH]c2ccccc2c1=O
TGI (A549 NSCLC): > 100 µM
TGI (CAKI-1 renal): > 100 µM
TGI (MALME-3M melanoma): > 100 µM
TGI (MDA-N): > 100 µM
TGI (NCI-H522 lung): > 100 µM
TGI (OVCAR-8 ovarian): > 100 µM
TGI (RXF 393 renal): > 100 µM
TGI (SR leukemia): > 100 µM

O=C1NC(=S)NC(=O)C1=Cc1ccc([N+](=O)[O-])o1
TGI (A549 NSCLC): > 100 µM
TGI (CAKI-1 renal): 37 µM
TGI (DLD-1 colon): 39 µM
TGI (DMS 114 small cell lung): 34.6 µM
TGI (DMS 273 small cell lung): 37.8 µM
TGI (HOP-18 NSCLC): 35.3 µM
TGI (KM20L2 colon): 43.1 µM
TGI (LXFL 529 NSCLC): 30.5 µM
TGI (M19-MEL melanoma): 36.8 µM
TGI (MALME-3M melanoma): 28.4 µM
TGI (NCI-H522 lung): 35.1 µM
TGI (OVCAR-8 ovarian): 66.9 µM
TGI (RXF 393 renal): 38.3 µM
TGI (RXF-631 renal): 33.5 µM
TGI (SNB-78 CNS): 49.3 µM
TGI (SR leukemia): 43.9 µM
TGI (XF 498 CNS): 52.3 µM

O=C(O)CCC1C(=O)C2CCN1CC2 (stereo unspecified)
TGI (A549 NSCLC): > 100 µM
TGI (CAKI-1 renal): > 100 µM
TGI (MALME-3M melanoma): > 100 µM
TGI (MDA-N): > 100 µM
TGI (NCI-H522 lung): > 100 µM
TGI (OVCAR-8 ovarian): > 100 µM
TGI (RXF 393 renal): > 100 µM
TGI (SR leukemia): > 100 µM

OC(Cc1cnnc2ccccc12)C(Cl)(Cl)Cl (stereo unspecified)
TGI (A549 NSCLC): > 10 µM
TGI (CAKI-1 renal): > 10 µM
TGI (MALME-3M melanoma): > 10 µM
TGI (MDA-N): > 10 µM
TGI (NCI-H522 lung): > 10 µM
TGI (OVCAR-8 ovarian): > 10 µM
TGI (RXF 393 renal): > 10 µM
TGI (SR leukemia): > 10 µM

C=C(Cl)[C@](Cl)(CBr)CC[C@@H](Br)C(C)(C)Cl
TGI (A549 NSCLC): 5.49 µM
TGI (CAKI-1 renal): 0.751 µM
TGI (MALME-3M melanoma): 24.2 µM
TGI (MDA-N): 2.47 µM
TGI (NCI-H522 lung): 30.2 µM
TGI (OVCAR-8 ovarian): 2.86 µM
TGI (RXF 393 renal): 0.576 µM
TGI (SR leukemia): 25.5 µM

C=C(CN(C)C)C(=O)c1ccccc1
TGI (A549 NSCLC): 53 µM
TGI (CAKI-1 renal): 16.8 µM
TGI (DLD-1 colon): 11.5 µM
TGI (DMS 114 small cell lung): 11.1 µM
TGI (DMS 273 small cell lung): 39.2 µM
TGI (HOP-18 NSCLC): 14.8 µM
TGI (KM20L2 colon): 39.8 µM
TGI (LXFL 529 NSCLC): 5.64 µM
TGI (M19-MEL melanoma): 22.9 µM
TGI (MALME-3M melanoma): 11.1 µM
TGI (MDA-N): 28.1 µM
TGI (NCI-H522 lung): 1.69 µM
TGI (OVCAR-8 ovarian): 44.6 µM
TGI (RXF 393 renal): 6.47 µM
TGI (RXF-631 renal): 48.5 µM
TGI (SNB-78 CNS): 62.6 µM
TGI (SR leukemia): > 60.5 µM
TGI (XF 498 CNS): 29.9 µM

CCc1n[nH]c(=O)n1-n1c(C)ccc1C
TGI (A549 NSCLC): > 100 µM
TGI (CAKI-1 renal): > 100 µM
TGI (MALME-3M melanoma): > 100 µM
TGI (MDA-N): > 100 µM
TGI (NCI-H522 lung): > 100 µM
TGI (OVCAR-8 ovarian): > 100 µM
TGI (RXF 393 renal): > 100 µM
TGI (SR leukemia): > 100 µM

Cc1cccc2c(N)c3cccc(C(=O)NCCNCCN)c3nc12
TGI (A549 NSCLC): 20.4 µM
TGI (CAKI-1 renal): 79.9 µM
TGI (MALME-3M melanoma): 36.2 µM
TGI (MDA-N): 58.6 µM
TGI (NCI-H522 lung): 1.36 µM
TGI (OVCAR-8 ovarian): 17.8 µM
TGI (RXF 393 renal): 36.1 µM
TGI (SR leukemia): > 100 µM

O=C(Cn1c2ccc(Br)cc2c2nc3ccccc3nc21)NNC(=O)NC1CCCCC1
TGI (A549 NSCLC): 41.7 µM
TGI (CAKI-1 renal): > 100 µM
TGI (MALME-3M melanoma): > 100 µM
TGI (MDA-N): > 100 µM
TGI (NCI-H522 lung): > 100 µM
TGI (OVCAR-8 ovarian): > 100 µM
TGI (RXF 393 renal): > 100 µM
TGI (SR leukemia): > 100 µM

O=C1NC(=Nc2ccccc2Cl)N/C1=C\c1c(Cl)cccc1Cl
TGI (A549 NSCLC): > 100 µM
TGI (CAKI-1 renal): > 100 µM
TGI (MALME-3M melanoma): > 100 µM
TGI (MDA-N): > 100 µM
TGI (NCI-H522 lung): 58.7 µM
TGI (OVCAR-8 ovarian): > 100 µM
TGI (RXF 393 renal): 68 µM
TGI (SR leukemia): 48 µM
